Assay results published in ChEMBL document CHEMBL1201862, “PubChem BioAssay data set” (2004).
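Method: 48-hour compound exposure of cells in 96-well plates, five concentrations, linear interpolation of endpoints. Abbreviation: GI50, concentration required for 50% inhibition of growth.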 Activity calls are given as the source filed them. Rule as the data show it: active = GI50 up to about 1.1 µM and inactive = higher.

Columns and labels:
Assay in all cases: NCI anticancer screen, dose series, 48 h
OVCAR-5 = system: OVCAR-5
K562 = system: K562
IGROV-1 = system: IGROV-1
RPMI-8226 = system: RPMI-8226
SW-620 = system: SW-620
SK-MEL-28 = system: SK-MEL-28
NCI-H23 = system: NCI-H23
786-0 = system: 786-0
Malme-3M = system: Malme-3M
LOX IMVI = system: LOX IMVI
SN12C = system: SN12C
UACC-62 = system: UACC-62
OVCAR-8 = system: OVCAR-8
SF-295 = system: SF-295
RXF 393 = system: RXF 393
NCI-H226 = system: NCI-H226
SK-OV-3 = system: SK-OV-3

Measured: GI50

CCOC(=O)[C@H]1Nc2ccc([N+](=O)[O-])cc2C2c3ccccc3CC21 (stereo partly drawn)
inactive: OVCAR-5 16.6 µM | K562 3.89 µM | IGROV-1 28 µM | RPMI-8226 16.9 µM | SW-620 11.9 µM | SK-MEL-28 12.1 µM | NCI-H23 15.3 µM | 786-0 19.7 µM | Malme-3M 19 µM | LOX IMVI 17.9 µM | SN12C 15.5 µM | UACC-62 12.2 µM | OVCAR-8 21.4 µM | SF-295 11.2 µM | RXF 393 4.53 µM | NCI-H226 19.1 µM

Cc1cc2occ(C)c(=O)c2c2c1OC(C)(C)S2
inactive: OVCAR-5 > 100 µM | K562 51.9 µM | IGROV-1 > 100 µM | RPMI-8226 82.4 µM | SW-620 > 100 µM | SK-OV-3 > 100 µM | SK-MEL-28 > 100 µM | NCI-H23 > 100 µM | 786-0 > 100 µM | Malme-3M > 100 µM | LOX IMVI > 100 µM | SN12C > 100 µM | UACC-62 > 100 µM | OVCAR-8 > 100 µM | SF-295 > 100 µM | RXF 393 88.1 µM | NCI-H226 > 100 µM

Cc1ccccc1C1SCc2nc3ccccc3n21 (stereo not drawn)
inactive: OVCAR-5 3.38 µM | K562 3.77 µM | IGROV-1 > 100 µM | RPMI-8226 5.85 µM | SK-OV-3 > 100 µM | SK-MEL-28 23.6 µM | NCI-H23 12.8 µM | 786-0 > 100 µM | Malme-3M 44.9 µM | SN12C > 100 µM | UACC-62 7.28 µM | OVCAR-8 > 100 µM | SF-295 48.9 µM | RXF 393 > 100 µM | NCI-H226 60.3 µM

Cc1cc(O)nc(NNC(C#N)c2c(O)ccc3ccccc23)n1 (stereo not drawn)
inactive: OVCAR-5 16.7 µM | K562 3.68 µM | IGROV-1 3.4 µM | RPMI-8226 3.72 µM | SW-620 4.56 µM | SK-OV-3 7.08 µM | SK-MEL-28 5.18 µM | NCI-H23 3.56 µM | 786-0 3.52 µM | Malme-3M 7.55 µM | LOX IMVI 4.08 µM | SN12C 3.18 µM | UACC-62 2.87 µM | OVCAR-8 3.1 µM | SF-295 4.74 µM | RXF 393 10.4 µM | NCI-H226 4.14 µM

Cc1cc2c(C)n(Cc3ccc(Cl)cc3Cl)nc2c(C(=O)O)c1C
inactive: OVCAR-5 > 100 µM | IGROV-1 > 100 µM | RPMI-8226 > 100 µM | SW-620 > 100 µM | SK-OV-3 > 100 µM | SK-MEL-28 > 100 µM | NCI-H23 > 100 µM | 786-0 > 100 µM | Malme-3M > 100 µM | LOX IMVI > 100 µM | SN12C 63.4 µM | UACC-62 96.8 µM | OVCAR-8 > 100 µM | SF-295 > 100 µM | RXF 393 > 100 µM | NCI-H226 > 100 µM

CC12Oc3ccc4ccccc4c3CC1Cc1c(ccc3ccccc13)O2 (stereo not drawn)
inactive: OVCAR-5 > 100 µM | SW-620 > 100 µM | SK-MEL-28 > 100 µM | NCI-H23 > 100 µM | 786-0 40.2 µM | Malme-3M 3.44 µM | LOX IMVI 56.2 µM | OVCAR-8 49.7 µM | SF-295 30 µM | RXF 393 27.2 µM | NCI-H226 23 µM

N#C/C(=C\c1ccc[nH]1)C(=O)c1ccccc1
inactive: OVCAR-5 > 100 µM | K562 > 100 µM | RPMI-8226 > 100 µM | SW-620 > 100 µM | SK-OV-3 > 100 µM | SK-MEL-28 > 100 µM | NCI-H23 > 100 µM | 786-0 > 100 µM | Malme-3M > 100 µM | LOX IMVI > 100 µM | SN12C > 100 µM | UACC-62 > 100 µM | OVCAR-8 > 100 µM | SF-295 > 100 µM | RXF 393 58.9 µM | NCI-H226 > 100 µM
